Where a chain is given by its changes, count along the chain named. Entries after “also recorded” stand apart in the source; their conditions may differ. Like-named read-outs stand apart in the source and are kept apart here.
How the values were obtained:
[1] = target: T1, wild type GLA (Homo sapiens, UniProt P06280); format: cell-based
T1 sequence (P06280 32-429): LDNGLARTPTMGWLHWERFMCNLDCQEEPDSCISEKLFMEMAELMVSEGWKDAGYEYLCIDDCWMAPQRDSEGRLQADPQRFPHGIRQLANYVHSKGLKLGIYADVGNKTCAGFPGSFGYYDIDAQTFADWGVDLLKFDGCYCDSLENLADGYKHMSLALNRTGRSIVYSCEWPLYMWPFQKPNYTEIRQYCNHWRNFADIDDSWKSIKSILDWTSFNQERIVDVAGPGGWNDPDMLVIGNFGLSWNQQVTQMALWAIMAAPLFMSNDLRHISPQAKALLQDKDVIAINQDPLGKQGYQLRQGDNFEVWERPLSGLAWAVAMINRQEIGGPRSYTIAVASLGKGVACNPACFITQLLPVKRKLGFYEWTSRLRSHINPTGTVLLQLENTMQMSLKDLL
Experimental: A bacterial clone containing the full length cDNA of α-galactosidase A (IRAUp969H0320D, aligned to accession no. NM_000169.2 (GeneBank)) was received form ImaGenes GmbH, Berlin, Germany. Amplification was performed with the primers 5′-[…] […]-3′ (SEQ ID NO:1) and 5′-[…]-3′ (SEQ ID NO:2) introducing unique restriction sites for BamHI and BstBI. The PCR was taken out using cloned Pfu DNA polymerase (Stratagene). The cDNA was subcloned into pGEM-T Easy vector (Promega). Prior to ligation, the cDNA insert was incubated with Taq polymerase (Qiagen) to add a poly (A) overhang at the 3′-end for TA-cloning. For expression, the α-Gal A cDNA was ligated into target vector pcDNA3.1/V5-His6 (Invitrogen).

[2] = target: acid α-glucosidase mutants (Homo sapiens, UniProt P10253, Y575S); format: cell-based; conditions: NB-DNJ and Ambroxol combination; FIG. 7A
Chain of acid α-glucosidase mutants (Homo sapiens, UniProt P10253, Y575S) (P10253 70-952 Y575S): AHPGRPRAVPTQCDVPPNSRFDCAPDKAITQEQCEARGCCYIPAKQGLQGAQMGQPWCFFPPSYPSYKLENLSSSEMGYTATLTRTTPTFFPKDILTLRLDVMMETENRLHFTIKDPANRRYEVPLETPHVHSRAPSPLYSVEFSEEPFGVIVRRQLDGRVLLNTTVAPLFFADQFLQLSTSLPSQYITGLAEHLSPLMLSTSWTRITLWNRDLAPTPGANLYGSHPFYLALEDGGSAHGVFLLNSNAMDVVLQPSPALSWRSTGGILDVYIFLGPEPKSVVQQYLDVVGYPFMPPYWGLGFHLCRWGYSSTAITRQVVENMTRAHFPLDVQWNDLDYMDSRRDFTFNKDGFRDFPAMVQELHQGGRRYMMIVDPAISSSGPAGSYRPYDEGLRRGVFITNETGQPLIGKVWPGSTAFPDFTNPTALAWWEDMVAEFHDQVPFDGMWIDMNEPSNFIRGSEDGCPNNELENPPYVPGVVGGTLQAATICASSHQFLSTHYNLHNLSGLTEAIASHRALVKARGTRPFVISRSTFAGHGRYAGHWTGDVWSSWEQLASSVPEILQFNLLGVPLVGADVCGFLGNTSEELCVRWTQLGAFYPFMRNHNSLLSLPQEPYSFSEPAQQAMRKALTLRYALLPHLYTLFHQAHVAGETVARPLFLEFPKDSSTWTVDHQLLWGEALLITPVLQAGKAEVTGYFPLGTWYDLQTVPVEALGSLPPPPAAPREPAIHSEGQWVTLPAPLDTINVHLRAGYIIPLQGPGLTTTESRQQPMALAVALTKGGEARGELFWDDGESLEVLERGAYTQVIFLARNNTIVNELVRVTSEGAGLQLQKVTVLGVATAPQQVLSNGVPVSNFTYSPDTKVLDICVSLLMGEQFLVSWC
Experimental: (§1) A bacterial clone containing the full length cDNA of […] (IRATp970C0971D, aligned to accession no. NM_000152.3, GeneBank) was received form ImaGenes GmbH, Berlin, Germany. Amplification was performed with the primers 5′-TAGGAGCTGTCCAGGCCATC-3′ (SEQ ID NO:3) and 5′-GAGAGACTAACACACTCCGC-3′ (SEQ ID NO:4). The PCR was carried out using iProof DNA Polymerase (BioRad). The cDNA was subcloned into pCRII TA TOPO vector (Invitrogen). Prior to ligation, the cDNA insert was incubated with Taq polymerase (Qiagen) to add a poly (A) overhang at the 3′-end for TA-cloning. For expression, the GAA cDNA was ligated into target vector pcDNA3.1/V5-His6 (Invitrogen) using sticky end ligation utilizing unique restriction sites (HindIII, XhoI) offered by both vectors multiple cloning sites.
(§2) Sample preparation was carried out analogously to the α-galactosidase A recordings. As substrate, a 1.3 mg 4-Methylumbelliferyl-α-D-Glukopyranoside/ml solution (in sodium acetate buffer, pH 4.0) was used and 5 μg sample/reaction were added. The reaction was incubated for 60 minutes at 37° C. and stopped with 1M Glycine-NaOH, pH 10.5.

[3] = test system: acid α-glucosidase mutants; format: cell-based
Experimental: as §1, §2

[4] = target: T2, GLA[A156V] (Homo sapiens, UniProt P06280, A156V); format: cell-based; conditions: untreated = 1.0, FIG. 5A
T2 sequence (P06280 32-429 A156V): T1 sequence (P06280 32-429) with A125V

[5] = target: T3, GLA[R301G] (Homo sapiens, UniProt P06280, R301G); format: cell-based; conditions: 20 μM DGJ and 40 μM Ambroxol; untreated = 1.0; FIG. 5B
T3 sequence (P06280 32-429 R301G): T1 sequence (P06280 32-429) with R270G

[6] = target: GLA mutants (alpha-galactosidase A) (Homo sapiens, UniProt P06280, H225R); conditions: GLA mutant H225R; Ambroxol in combination with DGJ
Chain of GLA mutants (alpha-galactosidase A) (Homo sapiens, UniProt P06280, H225R) (P06280 32-429 H225R): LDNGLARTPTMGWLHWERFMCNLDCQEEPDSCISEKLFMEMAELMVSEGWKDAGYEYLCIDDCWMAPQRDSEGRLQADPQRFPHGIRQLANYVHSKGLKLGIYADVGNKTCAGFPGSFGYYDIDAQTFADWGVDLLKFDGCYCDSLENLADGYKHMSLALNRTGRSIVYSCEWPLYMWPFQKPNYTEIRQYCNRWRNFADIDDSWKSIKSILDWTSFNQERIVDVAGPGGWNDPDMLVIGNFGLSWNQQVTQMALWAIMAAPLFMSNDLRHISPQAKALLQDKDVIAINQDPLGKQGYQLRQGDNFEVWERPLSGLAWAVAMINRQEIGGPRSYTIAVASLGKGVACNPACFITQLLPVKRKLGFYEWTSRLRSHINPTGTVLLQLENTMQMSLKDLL

[7] = target: GLA mutants (alpha-galactosidase A) (Homo sapiens, UniProt P06280, M51I); conditions: GLA mutant M51I; Ambroxol in combination with DGJ
Chain of GLA mutants (alpha-galactosidase A) (Homo sapiens, UniProt P06280, M51I) (P06280 32-429 M51I): as the sequence (P06280 32-429 H225R) above, with M20I, R194H counted along it

[8] = target: T4, Wild type α-galactosidase A (Replagal®, agalsidase alfa) (Homo sapiens, UniProt P06280); test: Inhibition of agalsidase alfa (Replagal), cell free; format: biochemical; conditions: for reduction of the enzyme activity, Ambroxol only: FIG. 8 inlay
T4 construct: purchased Shire Pharmaceuticals Replagal
T4 sequence (P06280 32-429): T1 sequence (P06280 32-429)

Nc1c(Br)cc(Br)cc1CN[C@H]1CC[C@H](O)CC1 [Ambroxol, 2-amino-3,5-dibromo-N-[trans-4-hydroxycyclohexyl]benzylamine]
enzyme activity of the GLA of the wild type ([1]; 40 μM Ambroxol alone, FIG. 1): increase in enzyme activity
inhibition of wild type GLA ([1]; Ambroxol dose-response, FIG. 2): not inhibiting
Ambroxol titer at or beyond which local maximum or saturation of wild type GLA activity ([1]; FIG. 2): > 60 µM
EC50 ([1]; read-out: EC50 of increase of wild type GLA activity): 21.2 µM
responsiveness of mutation Y575S [2]: clear tendency to be responsive only towards the combination
activity of acid α-glucosidase, Ambroxol in combination with NB-DNJ ([3]; 20 μM NB-DNJ + 40 μM Ambroxol compared to 20 μM NB-DNJ alone, FIG. 7): enhanced
enzyme activity of mutations Y455F, P545L and L552P, combined treatment ([3]; 20 μM NB-DNJ and 40 μM Ambroxol, FIG. 7A): significantly increased
activity of mutant acid α-glucosidase, Ambroxol alone ([3]; 40 μM Ambroxol without chaperone): not leading to an enhancement
activity when additionally treated with Ambroxol ([3]; mutations Y455F, P545L and L552P, compared to NB-DNJ): tendency for higher activities
increase of GLA[A156V] activity ([4]; 8 μM DGJ and 40 μM Ambroxol): 3.8 fold
increase of GLA[A156V] activity ([4]; 20 μM DGJ and 40 μM Ambroxol): up to 8 fold
increase of GLA[R301G] activity [5]: 4.1 fold
additive Ambroxol effect demonstrated [6]: ** (**p≤0.05)
additive Ambroxol effect demonstrated [7]: ** (**p≤0.05)
effect of Ambroxol on the inhibition of WT α-galactosidase A by DGJ ([8]; 40 μM Ambroxol): no effect
effect of Ambroxol alone on the enzyme in the cell free assay ([8]; cell free): not inhibited; also recorded: neither an inhibitory nor a stimulating effect
reduction of the enzyme activity, Ambroxol only ([8]; pH 4.5): No reduction
reduction of the enzyme activity, Ambroxol only ([8]; pH 6.7): No reduction
